This is an account of results in PMC9558423 (Molecular nutrition & food research, 2020).

Where two headings read alike, the source gives them in different places. Marks after values point to notes of the source that are not given here.

For data set [1] the following is noted: for Qualitative Tmax (urine collection with greatest excretion): 12h urine collections, np = no peak; for Cmax (nmol excreted) / Tmax: urine; for Cmax (nmol excreted): mean ± SD; for Time of maximal urinary excretion after dosing: as stated in text/figure legend, doses not separated; for Tmax: female, Sprague Dawley, rat, po.
The conditions of data set [2]: for Qualitative Tmax (blood collection with greatest plasma level): blood every 6h, np = no peak; for Plasma AUC: plasma 0–48h, trapezoidal; for Cmax / AUC / Tmax: plasma.
Setting [3] is: High dose (1000 mg/kg bw), mean ± SD.
Where [4] appears, read: Medium dose (350 mg/kg bw), mean ± SD.
[5] abbreviates: Low dose (75 mg/kg bw), mean ± SD.
Where [6] appears, read: female, Sprague Dawley, rat, po, 75 mg/kg.
The mark [7] stands for this setting: female, Sprague Dawley, rat, po, 350 mg/kg.
Setting [8] is: female, Sprague Dawley, rat, po, 1000 mg/kg.

Usually Cmax stands for the maximum level reached in the sampled fluid or tissue. With `O=C(O)CCc1cccc(O)c1` [3-OH-PPA, 3-hydroxyphenylpropionic acid], the “Qualitative Tmax (urine collection with greatest excretion)” value in data set [1] (High dose (1000 mg/kg bw)) was 12 to 24 h; in data set [1] (Low dose (75 mg/kg bw)), 0 to 12 h; in data set [1] (Medium dose (350 mg/kg bw)), 0 to 12 h. Further, the “Cmax (nmol excreted)” value in data set [1] (High dose (1000 mg/kg bw)) is 275 ± 34 nmol excreted; in data set [1] (Low dose (75 mg/kg bw)), 25.4 ± 6.9 nmol excreted; in data set [1] (Medium dose (350 mg/kg bw)) it was 177 ± 24 nmol excreted. Further, the “Qualitative Tmax (blood collection with greatest plasma level)” value in data set [2] (High dose (1000 mg/kg bw)) and in data set [2] (Medium dose (350 mg/kg bw)) was 12 h in each case. For the same compound, the “Plasma AUC” value was 8.00 ± 2.22 ^x uM*h in data set [2] (setting [3]) and 2.46 ± 0.95 ^w uM*h in data set [2] (setting [4]). Moreover, the Cmax in data set [2] (setting [3]) turned out to be 0.507 ± 0.107 µM; in data set [2] (setting [4]), 0.161 ± 0.092 µM.
The term Tmax denotes the time from dosing to the highest level. As usually defined, the AUC is concentration integrated over time. Turning to `O=C(O)CNC(=O)c1ccccc1` [Hippuric acid, hippuric acid], the results for the “Cmax (nmol excreted)” value in data set [1] (High dose (1000 mg/kg bw)), in data set [1] (Low dose (75 mg/kg bw)) and in data set [1] (Medium dose (350 mg/kg bw)) were 598 ± 146 nmol excreted, “np” and 700 ± 78 nmol excreted, respectively. For the same compound, the “Qualitative Tmax (urine collection with greatest excretion)” value in data set [1] (Low dose (75 mg/kg bw)) was “np”. In data set [1], the “Time of maximal urinary excretion after dosing” value is 12 to 24 h. Moreover, the Tmax in data set [1] (350 mg/kg) was 12 to 24 h; in data set [1] (1000 mg/kg) it was 12 to 24 h; in data set [2] (setting [7]), 12 h; in data set [2] (setting [8]) it was 24 to 36 h. For the same compound, the “Amount excreted in urine, medium vs high dose” value in data set [1] (medium (350) vs high (1000 mg/kg bw) dose) is “no difference”. Besides, the “Qualitative Tmax (blood collection with greatest plasma level)” value in data set [2] (Low dose (75 mg/kg bw)) is recorded as “np”. The Cmax result in data set [2] (setting [5]) was “np”; in data set [2] (setting [7]), 1.54 ± 0.51 µM; in data set [2] (setting [8]), 2.06 ± 0.806 µM. Moreover, the AUC amounted to 25.8 ± 3.08 µM·h in data set [2] (setting [6]), 47.7 ± 5.13 µM·h in data set [2] (setting [7]) and 74.3 ± 7.54 µM·h in data set [2] (setting [8]).
For `COc1cc(C(=O)O)cc(OC)c1O` [Syringic acid, syringic acid], the “Cmax (nmol excreted)” value in data set [1] (High dose (1000 mg/kg bw)) is 35.1 ± 6.0 nmol excreted; in data set [1] (Low dose (75 mg/kg bw)), 1.03 ± 0.30 nmol excreted; in data set [1] (Medium dose (350 mg/kg bw)) it was 12.2 ± 3.0 nmol excreted. Further, the “Time of maximal urinary excretion after dosing” value in data set [1] is ≤ 12 h. Also, the Tmax in data set [1] (75 mg/kg), in data set [1] (350 mg/kg) and in data set [1] (1000 mg/kg) was 0 to 12 h throughout. The “Plasma AUC” value in data set [2] (setting [3]) is given as “trace”.
On to Caffeic acid glucuronide, for which the entries for the “Qualitative Tmax (urine collection with greatest excretion)” value in data set [1] (High dose (1000 mg/kg bw)), in data set [1] (Low dose (75 mg/kg bw)) and in data set [1] (Medium dose (350 mg/kg bw)) were 0 to 12 h, “np” and 0 to 12 h, respectively. Further, the “Cmax (nmol excreted)” value in data set [1] (High dose (1000 mg/kg bw)) is given as 379 ± 134 nmol excreted; in data set [1] (Low dose (75 mg/kg bw)), “np”; in data set [1] (Medium dose (350 mg/kg bw)), 261 ± 50 nmol excreted. Besides, the “Qualitative Tmax (blood collection with greatest plasma level)” value in data set [2] (High dose (1000 mg/kg bw)) was 6 h; in data set [2] (Low dose (75 mg/kg bw)), “np”; in data set [2] (Medium dose (350 mg/kg bw)), 6 h. Also, the “Plasma AUC” value in data set [2] (setting [3]) is reported as 0.92 ± 0.20 ^y uM*h; in data set [2] (setting [5]), 0.36 ± 0.06 ^w uM*h; in data set [2] (setting [4]) it was 0.55 ± 0.11 ^x uM*h. The Cmax in data set [2] (setting [3]) was 0.084 ± 0.02 µM; in data set [2] (setting [5]) it was “np”; in data set [2] (setting [4]), 0.021 ± 0.008 µM.
For the compound `O=C(O)[C@H]1O[C@@H](Oc2c(-c3ccc(O)c(O)c3)oc3cc(O)cc(O)c3c2=O)[C@H](O)[C@@H](O)[C@@H]1O` [Quercetin glucuronide, quercetin-3-O-glucuronide], the “Cmax (nmol excreted)” value is 1.83 ± 0.28 nmol excreted in data set [1] (High dose (1000 mg/kg bw)), “np” in data set [1] (Low dose (75 mg/kg bw)) and 0.72 ± 0.14 nmol excreted in data set [1] (Medium dose (350 mg/kg bw)). In addition, the “Qualitative Tmax (urine collection with greatest excretion)” value in data set [1] (Low dose (75 mg/kg bw)) was “np”. Also, the Tmax was 0 to 12 h in data set [1] (350 mg/kg), 0 to 12 h in data set [1] (1000 mg/kg), 6 h in data set [2] (setting [7]) and 6 h in data set [2] (setting [8]). In data set [2] (Low dose (75 mg/kg bw)), the “Qualitative Tmax (blood collection with greatest plasma level)” value is “np”. In addition, the Cmax result in data set [2] (setting [5]) was “np”; in data set [2] (setting [7]), 0.008 ± 0.002 µM; in data set [2] (setting [8]), 0.023 ± 0.005 µM. Also, the AUC in data set [2] (setting [6]) is 0.32 ± 0.01 µM·h; in data set [2] (setting [7]), 0.34 ± 0.05 µM·h; in data set [2] (setting [8]) it was 0.57 ± 0.14 µM·h.
